Laboratory results taken from a melting point compilation (Tetko et al.; mined from patent text by program, amines drawn as free bases though some values may be those of a salt).

| Compound | melting point [°C] |
| --- | --- |
| N#Cc1cc(Br)c(O)c([N+](=O)[O-])c1 | 162 to 164 |
| COC(=O)[C@H]1[C@H](c2ccc3c(c2)OCO3)c2ccc(O)cc2[C@@H]1c1ccc(OC)cc1 (racemic) | 187 to 188 |
| Cc1cc(=O)[nH]c2ccc(Cn3ccnc3)cc12 | 266 |
| O=c1[nH]c(=O)n2c(c1Cc1ccccc1)SCCC2 | 227 to 229 |
| CCOC(=O)c1cc(C)nc2c(O)cccc12 | 71.8 |
| O=C1c2ccc(Cl)cc2C(O)N1CCBr (configuration not stated) | 164 to 168 |
| COC(=O)c1ccc(C(=O)NN)cn1 | 177 to 180 |
| CCCCC(Cc1ccc(OCCNC(=O)c2ccc(N3CCCCC3)cc2)cc1)C(=O)O (configuration not stated) | 112 to 114 |
| Cc1ccc(C2SC3(CCN(CCCC(=O)c4ccc(F)cc4)CC3)c3ccccc32)cc1 (configuration not stated) | 134 to 135 |
| COc1ccc(C(=O)c2c(-c3ccc(O)cc3)sc3cc(O)ccc23)cc1 | 138 to 140 |
| Cc1oc2c(C)c(C)c(NC(=O)c3ccc(F)cc3)c(C)c2c1-c1ccccc1 | 242 to 245 |
| O=C(CO)N1CCN(c2ccc(Nc3cc(-c4cnc5cc[nH]c5c4)cn4ccnc34)nc2)CC1 | 218 to 220 |
| CCCCC(=O)Nc1ccc(-c2ccc(-c3ccccc3Cl)n2Cc2cccc(N)n2)cc1 | 145 to 150 |
| CCOCc1cc(COc2cc(CC)nc(C)c2OC)ccc1-c1ccccc1S(=O)(=O)Nc1noc(C)c1C | 64 to 72 |
| O=C(O)c1ccc(Nc2c(C(=O)O)cc(Cl)cc2[N+](=O)[O-])cc1 | 264 to 266 |
| COC(=O)C1=C(N)CCC1 | 95 to 96 |
| O=c1[nH]c2c3ccccc3ccc2n(Cc2ccccc2)c1=O | 308 |
| CC(C)(C)OC(=O)NC1CCCCCC=CC2CC2(C(=O)NS(=O)(=O)C2CC2)NC(=O)C2CC(OC(=O)c3ccc(-c4ccccc4)cc3)CN2C1=O (configuration not stated) | 162 to 164 |
| O=[N+]([O-])c1cc(C(F)(F)F)cc([N+](=O)[O-])c1Nc1ncc(Cl)cc1Cl | 85 to 87 |
| COc1ccc(-c2cc3oc(=O)c4ccccc4c3nn2)cc1 | 270 |
| CC(C)(C)C(=O)CC(=O)c1ncn2c1c(=O)n(C(C)(C)C)c1ccccc12 | 190 to 191 |
| COC(=O)COC1C(O)C(CO)OC(Oc2ccc(N)cc2)C1O (configuration not stated) | 155 |
| O=C(O)CCN1CCN2c3ccccc3Cc3ccccc3C2C1 (configuration not stated) | 195 to 197 |
| CCCCNC1=NS(=O)(=O)c2sc(Cl)cc2N1 | 218 to 219 |
| Cn1cc(CN2CCC[C@H]2CO)c2ccccc21 | 46 to 48 |
| CCOC(=O)C(CCc1ccccc1)CC1(C(=O)O)CCCC1 (configuration not stated) | 68 to 69 |

| Compound | melting point [°C] |
| --- | --- |
| N#Cc1c(N)oc2ccc(Cl)cc2c1=O | 340 |
| CCCCCCCc1ccnc2c(O)cccc12 | 92 to 93.5 |
| O=S1(=O)NC=Nc2c(Br)cc(Br)cc21 | 289 to 292 |
| CCCc1c(Cl)c2cc(Br)ccc2oc1=O | 96 to 97 |
| CCN1C(=O)C(=C(O)Cc2ccccc2)SC1=S | 74 to 76 |
| O=C1C(c2ccc(O)cc2)=C(c2ccccc2)c2cc(O)cc(O)c21 | 128 to 130 |
| COc1nc(N)nc2c1ncn2/C=C1\CC1(CO)CO | 179 to 180 |
| Cn1nnnc1CO/N=C(\C(=O)O)c1csc(N)n1 | 185 |
| CCN(CC)C(=O)c1cc2ccccc2c(-c2cccc(C(F)(F)F)c2)n1 | 76 |
| O=C(O)Cn1c(-c2cc(Cl)ccn2)nc2cccnc21 | 218 to 220 |
| CCOC(=O)C(C#N)=C(C)Nc1ccnc(-c2ccncc2)n1 | 203 to 205 |
| CC1(C)NC(=O)Oc2ccc(OCc3ccccc3)cc21 | 134 |
| COc1ccc(C(=O)NCCCCCNC(=O)c2ccc(OC)cc2)cc1 | 160 to 161 |
| COc1cc(CCNC(=O)[C@@H](NC(=O)OC(C)(C)C)C(C)C)ccc1OC/C=C\c1ccc(Cl)cc1 | 82 to 84 |
| Cc1nn(C)c(C)c1C(=O)Nc1ccc(C(C(F)(F)F)C(F)(F)F)c(CC(C)C)c1 | 148 to 151 |
| OCCOc1cccc(-n2ccnc2)c1 | 81 to 83 |
| COC(=O)CCc1ncc2c(c1C(=O)OC)CCO2 | 80 to 81 |
| COC(=O)C(N)=Cc1ccc(OCC(O)CNC(C)C)c(Cl)c1 (configuration not stated) | 122 to 123 |
| COc1ccc(-c2c(Cl)ncn2-c2ccc(S(C)(=O)=O)cc2)cc1F | 196 |
| CCCOc1ccccc1-c1nc(CO)c[nH]1 | 90 to 92 |
| COC(=O)C(C(=O)OC)=C1SC=CS1 | 125 to 129 |
| CCOC(=O)Cc1nc(-c2ccc(Cl)cc2)oc1Oc1cc(C)ccc1C | 122 to 124 |
| Cc1cnc(-c2ccncc2)nc1N | 210 to 213 |
| CC(=O)c1cccc2c1Oc1c(C(C)=O)cccc1N2[Si](C)(C)C(C)(C)C | 146 |
| COc1ccc(C2(C)CCc3cc(OC)ccc3C2CCCCCCO)cc1 (configuration not stated) | 76 to 83 |
| CCN(CC)CCNC(=O)c1ccc(S(N)(=O)=O)cc1 | 174 to 176 |

| Compound | melting point [°C] |
| --- | --- |
| Clc1ccc2c(Cl)c3c(nc2c1)CCCC3 | 85 to 87 |
| Brc1ccc(-c2cc3cc(-c4ccccc4)ccc3o2)cc1 | 90 to 92 |
| CCC(C(C)=CC(CNC(=O)C1=NNC(=O)CC1)=NO)[N+](=O)[O-] (configuration not stated) | 129 to 130 |
| CC(C)c1nccn1Cc1ccc2c(c1)-c1[nH]nc(-c3ccsc3)c1C2 | 128 to 129 |
| C=C(C)c1nnc(-c2cc3c([nH]c2=O)CCN(Cc2ccccc2)C3)o1 | 221 to 223 |
| CN1CC[C@@H](c2c(O)cc(O)c3c(=O)cc(-c4cc(O)ccc4Cl)oc23)[C@@H]1CO | 220 to 221 |
| CNC(=O)C(Cc1c[nH]c2ccccc12)NC(=O)C(C)(CC(C)C)c1ccc(Cl)cc1S (configuration not stated) | 75 to 78 |
| Cn1c2ccccc2c(=O)c2cccn21 | 154 to 156 |
| CC1=CC(=O)C(C(C)C)=C(CCNC(=O)C(F)(F)F)C1=O | 94 to 95 |
| N#CCCn1nc(-c2ccc(OCc3ccccc3)cc2)sc1=S | 138 |
| CCCCNC(=O)C(O[Si](C)(C)C(C)(C)C)C(C)(C)C (configuration not stated) | 41 to 42 |
| CNc1ccccc1C(=O)c1c(OC)cc(C)cc1OC | 215 |
| Cn1c(=O)oc2cc(C(O)CCN3CCOCC3)ccc21 (configuration not stated) | 132 |
| CCOC(=O)c1cc2cc(Oc3ccc(S(C)(=O)=O)cc3)cc(OCc3ccccc3)c2[nH]1 | 148 to 149 |
| CC(C)(C)C(NC(=O)Cc1ccc(Cl)cc1)NC(=NC#N)Nc1cccc2ncccc12 (configuration not stated) | 195 to 196 |
| CCOC(=O)c1cnc(CCOC)nc1NCc1ccc(-c2ccccc2-c2nnnn2C(c2ccccc2)(c2ccccc2)c2ccccc2)cc1 | 128 to 130 |
| Cc1csc2nc(C(=O)NCc3cccc(CNC(=O)c4nc[nH]n4)c3)[nH]c(=O)c12 | 290 to 291 |
| NS(=O)(=O)c1cc2ccc(O)cc2[nH]1 | 194 to 195 |
| Nc1ncnc2c1c(-c1ccc(F)cc1)cn2-c1ccccc1 | 202 to 203 |
| S=C(NCc1cccnc1)NC(=Nc1ccccc1)c1ccccc1 | 146 to 147 |
| CNc1cccc([N+](=O)[O-])c1C#N | 203 to 206 |
| Cn1c(=O)c2c(nc3n2CC(O)CN3)n(C)c1=O (configuration not stated) | 360 |
| COC(=O)NCCCCC(NC(=O)OC)C(=O)OC (configuration not stated) | 187 to 189 |
| NS(=O)(=O)c1ccc(CCNC(=O)c2nc(-c3ccccc3)no2)cc1 | 217 to 218 |
| CC1CC(=O)c2cc([N+](=O)[O-])ccc2O1 (configuration not stated) | 144 to 145 |
| Cc1noc(-c2c(C)nc(Br)n2C)n1 | 89 |

| Compound | melting point [°C] |
| --- | --- |
| CCOC(=O)CC(O)CC(O)C=CC(=C(c1ccc(F)cc1)c1ccc(F)cc1)n1nnnc1-c1ccccc1 (configuration not stated) | 160 to 162 |
| CSc1ccc(-c2nnc(Cl)cc2-c2ccc(Cl)cc2)cc1 | 145 to 146 |
| CC(=O)OC1CSC(Oc2cccc(-c3ccc(F)nc3)c2)C(OC(C)=O)C1OC(C)=O (configuration not stated) | 115 |
| O=C(O)c1cc(-c2ccc(Cl)cc2)nc(-c2ccc(Oc3ccc(F)cc3)cc2)c1 | 201 to 202 |
| CCOC(=O)C1=C(N)N=C(OCC)C(C(=O)O)C1c1ccccc1[N+](=O)[O-] (configuration not stated) | 133 to 134 |
| Nc1ccc2ccc(-c3cccc(F)c3)nc2n1 | 160 |
| Fc1ccc(Nc2ncnc3ccc(-c4cccs4)cc23)cc1Cl | 205 to 208 |
| CC(C)(C)OC(=O)N1CCC(NCc2cccc(NC(=O)c3ccc(F)cc3)n2)CC1 | 77.7 |
| O=C1NC(=O)C(c2ccc(OCCC3Oc4ccccc4N(Cc4cccc(Cl)c4)C3=O)cc2)S1 (configuration not stated) | 70 to 72 |
| COc1c(F)cc(F)c(C(N)=O)c1F | 102 |
| CN(C)c1nc2c(NCc3ccccc3)ncnc2n1C1OC(CO)C(O)C1O (configuration not stated) | 152 to 156 |
| CC(C)(C)N(N)C(=O)c1ccccc1 | 124 to 125 |
| CC(C)[C@H](NC(=O)OCc1ccccc1)C(=O)OCc1nc2c(N)nc3ccccc3c2n1CCCCNS(C)(=O)=O | 99 to 100 |
| Cc1c(C(O)C(F)(F)F)oc2c(Br)cccc12 (configuration not stated) | 93 |
| CC1CCN(c2cc(F)cc(C(=O)Nc3ccc(OCCN4CCOCC4)c4ccccc34)c2)CC1 | 116 to 118 |
| O=C1NC(=O)C2CCCCC12 (configuration not stated) | 132 to 136 |
| CC(C)c1ccc(N(Cc2ccc(N(C)C)cc2)C(=O)C2CCCc3cc(OCc4ccccc4)ccc32)cc1 (configuration not stated) | 107 to 109 |
| CCCCc1nc(C(F)(F)F)c(CO)n1Cc1ccc(-c2ccccc2C#N)cc1 | 136 to 138 |
| CC(/C=C/C(=O)OC(C)(C)C)=C\c1ccc(N)cc1 | 99 to 101 |
| COc1ccc2cc(-c3ccncn3)ccc2n1 | 164 to 165 |
| Cc1cc2cc(CN3CCCCCC3)cnc2cc1NC(=O)c1ccc(-c2ccc(F)cc2)cc1 | 170 to 174 |
| CC(C)COC1OC(CO)C(O)C(O)C1(O)N(C(=O)N(CCCl)N=O)C1CCCCC1 (configuration not stated) | 87 to 89 |
| COc1cc(NC(=O)c2ccccc2Cl)ccc1C(=O)N1CCCC(OCCNC(N)=O)c2cc(Cl)ccc21 (configuration not stated) | 206 to 207 |
| O=c1[nH]c2ncc(-c3ccncc3)nc2n1CC1CCCCC1 | 267 to 269 |
